Experiments:
[1] = system: rat brain ischemia-reperfusion (I/R); conditions: acute rat model, inhaled; Ohsawa 2007; cited from earlier work
[2] = system: mice with intratracheal administration of LPS; assay: LPS-induced lung injury in mice (intratracheal LPS); format: in vivo; conditions: for lung injury after intratracheal LPS: 2% H2 and/or 20 ppm NO for 3 hours starting at 5 minutes or 3 hours after LPS administration; for pulmonary inflammation and cell apoptosis: H2 and/or NO treatment
From the text: Applicants have discovered that NO's effect as an antioxidant may be enhanced by eliminating highly reactive by-products of NO inhalation such as peroxynitrite, by adding H2 to inhaled NO gas.

chrondrocytes = conditions: Yokota 2015; cited from earlier work
rats exposed to high O2 = conditions: cited from earlier work
neonatal piglets = conditions: short-term exposure, Ekekezie 2000; cited from earlier work
HIF = conditions: cited from earlier work

SMILES	lung injury after intratracheal LPS [2]	pulmonary inflammation and cell apoptosis [2]	lung collagen accumulation (neonatal piglets)	other results
[HH] [H2, hydrogen]	significantly improved	down-regulated	–	brain injury associated with focal ischemia-reperfusion [1]: markedly suppressed; effect on cells under oxidant injury (chrondrocytes): cytoprotective effects
[N]=O [NO, nitric oxide]	significantly improved	down-regulated	increases lung collagen accumulation	survival in high O2 exposure (rats exposed to high O2; rats, inhaled NO): increase survival; effect on HIF at high doses (HIF; high doses and after 30 minutes): inhibitory; effect on HIF at low dose (HIF; low dose, for 30 minutes, during hypoxia): stimulates
COC(=O)[C@@H](N)CCCN=C(N)N[N+](=O)[O-] [Nω-nitro-1-arginine methyl ester]	–	–	–	survival on exposure to >95% O2 with endogenous NO production blocked (rats exposed to high O2; neonatal rats, compared with control rats): significantly fewer survived
O=O [O2, oxygen]	–	–	increases lung collagen accumulation	–
